From patent US20070117743A1, “New antitumoral compounds” (priority 2003, published 2007)
Where a SMILES comes first, the peptide text is derived from it. Bridges are numbered along the chain shown (N, C = ends). [ ]: non-standard residue; d: D form. The star is where a group is joined. ξ: configuration not given here. Pro(3ξ,4ξ-(CH2)4) = O=C(O)[C@H]1NCC2CCCCC21; Hexanoyl(4S-Me) = CC[C@H](C)CCC(=O)*; d(aIle) = CC[C@H](C)[C@@H](N)C(=O)O; d(aThr) = C[C@@H](O)[C@@H](N)C(=O)O; Orn = NCCC[C@H](N)C(=O)O; Dhb = C/C=C(\N)C(=O)O

How the values were obtained:
Type in all cases: cell-based, human
Details in all cases: 48 hours exposure, SRB
SK-MEL-28 = test: SRB colorimetric assay of cell growth and viability, SK-MEL-28
SK-BR-3 = test: SRB colorimetric assay of cell growth and viability, SK-BR-3
Description: The finality of this assay is to interrupt the growth of a “in vitro” tumor cell culture by means a continued exhibition of the cells to the sample to be testing.
This form of the assay employs 96 well cell culture microplates of 9 mm diameter (Faircloth, 1988; Mosmann, 1983). Most of the cell lines are obtained from American Type Culture Collection (ATCC) derived from different human cancer types.
Cells are maintained in RPMI 1640 10% FBS, supplemented with 0.1 g/l penicillin and 0.1 g/l streptomycin sulfate and then incubated at 37° C., 5% CO2 and 98% humidity. For the experiments, cells were harvested from subconfluent cultures using trypsin and resuspended in fresh medium before plating.
Cells are seeded in 96 well microtiter plates, at 5×10^3 cells per well in aliquots of 195 μL medium, and they are allowed to attach to the plate surface by growing in drug free medium for 18 hours. Afterward, samples are added in aliquots of 5 μL in a ranging from 10 to 10^−8 μg/mL, dissolved in DMSO:EtOH:PBS (0.5:0.5:99). After 48 hours exposure, the antitumor effect are measured by the SRB methodology: cells are fixed by adding 50 μL of cold 50% (wt/vol) trichloroacetic acid (TCA) and incubating for 60 minutes at 4° C. Plates are washed with deionized water and dried. One hundred μL of SRB solution (0.4% wt/vol in 1% acetic acid) is added to each microtiter well and incubated for 10 minutes at room temperature. Unbound SRB is removed by washing with 1% acetic acid. Plates are air dried and bound stain is solubilized with Tris buffer. Optical densities are read on a automated spectrophotometric plate reader at a single wavelength of 490 nm.
The values for mean+/− SD of data from triplicate wells are calculated. Some parameters for cellular responses can be calculated: GI=growth inhibition, TGI=total growth inhibition (cytostatic effect) and LC=cell killing (cytotoxic effect).

DU-145 = test: SRB colorimetric assay of cell growth and viability, DU-145
HeLa-APL = test: SRB colorimetric assay of cell growth and viability, HeLa-APL
K-562 = test: SRB colorimetric assay of cell growth and viability, K-562
IGROV-1 = test: SRB colorimetric assay of cell growth and viability, IGROV-1
HT-29 = test: SRB colorimetric assay of cell growth and viability, HT-29
HeLa = test: SRB colorimetric assay of cell growth and viability, HeLa
IGROV-ET = test: SRB colorimetric assay of cell growth and viability, IGROV-ET
PANC-1 = test: SRB colorimetric assay of cell growth and viability, PANC-1
LoVo = test: SRB colorimetric assay of cell growth and viability, LoVo
LoVo-Dox = test: SRB colorimetric assay of cell growth and viability, LoVo-Dox
Procedure, shortened: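 Optical density at 490 nm of solubilized SRB, from triplicate wells, yields GI, TGI and LC values. Before staining, cells are fixed for 60 minutes at 4° C in cold TCA after a 48-hour exposure.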

A-549 = test: SRB colorimetric assay of cell growth and viability, A-549

For `C/C=C1\NC(=O)[C@@H]2C3CCCCC3CN2C(=O)[C@@H](C(C)C)NC(=O)[C@@H]([C@@H](C)CC)NC(=O)[C@H](NC(=O)[C@H](NC(=O)[C@H](CCCN)NC(=O)[C@H]2CCCN2C(=O)[C@H](NC(=O)[C@@H](NC(=O)[C@@H](NC(=O)[C@H](NC(=O)CC[C@@H](C)CC)C(C)C)[C@@H](C)O)C(C)C)C(C)C)[C@@H](C)CC)[C@@H](C)OC(=O)[C@H](C(C)C)NC1=O` (stereo partly drawn) [Compound 79, [Oic^3, (4S)-MeHex^14]-KF] ({Hexanoyl(4S-Me)}-[dV]TV[dV][dP][Orn][d(aIle)][d(aThr)][d(aIle)][dV][Pro(3ξ,4ξ-(CH2)4)][Dhb]V; ester 8-C), the GI50 (SK-MEL-28) was 2.31 µM, the “TGI MEL-28” value (SK-MEL-28) was 6.75E−06 Molar and the CC50 (SK-MEL-28; read-out: LC50 MEL-28) was no less than 6.75 µM. The GI50 (SK-BR-3) was 0.796 µM, the LC50 (SK-BR-3) was 3.43 µM and the “TGI SK-BR-3” value (SK-BR-3) was 1.65E−06 Molar. For the same molecule, the GI50 (DU-145) was 6.01 µM, the LC50 (concentration causing 50% net cell kill) (DU-145) was no less than 6.75 µM and the “TGI DU-145” value (DU-145) was 6.75E−06 Molar. For the same molecule, the GI50 (HeLa-APL) was 4.8 µM, the “TGI HELA-APL” value (HeLa-APL) was 6.75E−06 Molar and the CC50 (HeLa-APL; read-out: LC50 HELA-APL) was no less than 6.75 µM. The GI50 (K-562) was 1.71 µM, the “TGI K-562” value (K-562) was 4.02E−06 Molar and the CC50 (K-562; read-out: LC50 K-562) was no less than 6.75 µM. The GI50 (IGROV-1) was 1.91 µM, the LC50 (concentration causing 50% net cell killing) (IGROV-1) was 5.55 µM and the “TGI IGROV” value (IGROV-1) was 3.25E−06 Molar. For the same molecule, the “TGI HT-29” value (HT-29) was 2.43E−06 Molar, the GI50 (HT-29; read-out: GI50 HT-29) was 1.44 µM and the CC50 (HT-29; read-out: LC50 HT-29) was 4.09 µM. The GI50 (HeLa) was 2.69 µM, the “TGI HELA” value (HeLa) was 6.75E−06 Molar and the CC50 (HeLa; read-out: LC50 HELA) was no less than 6.75 µM. For the same molecule, the GI50 (IGROV-ET) was 1.98 µM, the “TGI IGROV-ET” value (IGROV-ET) was 4.28E−06 Molar and the CC50 (IGROV-ET; read-out: LC50 IGROV-ET) was no less than 6.75 µM. For the same molecule, the GI50 (PANC-1) was no less than 6.75 µM, the “TGI PANC-1” value (PANC-1) was 6.75E−06 Molar and the CC50 (PANC-1; read-out: LC50 PANC-1) was no less than 6.75 µM. The GI50 (LoVo) was 0.591 µM, the “TGI LOVO” value (LoVo) was 1.40E−06 Molar and the CC50 (LoVo; read-out: LC50 LOVO) was 3.02 µM. The GI50 (LoVo-Dox) was 0.387 µM, the “TGI LOVO-DOX” value (LoVo-Dox) was 1.15E−06 Molar and the CC50 (LoVo-Dox; read-out: LC50 LOVO-DOX) was 2.56 µM. The “TGI A-549” value (A-549) was 6.75E−06 Molar, the GI50 (A-549; read-out: GI50 A-549) was 4.42 µM and the CC50 (A-549; read-out: LC50 A-549) was no less than 6.75 µM.
